Laboratory results as given in ChEMBL document CHEMBL5506058, “Discovery of Quinazoline and Quinoline-Based Small Molecules as Utrophin Upregulators via AhR Antagonism for the Treatment of Duchenne Muscular Dystrophy” (J Med Chem, 2024).
≈ marks a conversion by molar mass, not a printed value. Calls of active or inactive are those of the source. No cut-off for these calls is given here.

Assays:
[1] = Upregulation of utrophin expression in mouse C2C12 cells assessed as fold increase at 3 uM measured after 72 hrs by In-cell ELISA method; type: functional
[2] = biological target: T1, Aryl hydrocarbon receptor (Mus musculus, UniProt P30561); assay: Antagonist activity at AhR in mouse C2C12 cells assessed as reduction in ITE induced AhR nuclear translocation measured after 2 hrs by Hoechst 33258 staining based fluorescence microscopy analysis; type: cell-based; details: c2c12, 2 h
T1 sequence (P30561 whole entry): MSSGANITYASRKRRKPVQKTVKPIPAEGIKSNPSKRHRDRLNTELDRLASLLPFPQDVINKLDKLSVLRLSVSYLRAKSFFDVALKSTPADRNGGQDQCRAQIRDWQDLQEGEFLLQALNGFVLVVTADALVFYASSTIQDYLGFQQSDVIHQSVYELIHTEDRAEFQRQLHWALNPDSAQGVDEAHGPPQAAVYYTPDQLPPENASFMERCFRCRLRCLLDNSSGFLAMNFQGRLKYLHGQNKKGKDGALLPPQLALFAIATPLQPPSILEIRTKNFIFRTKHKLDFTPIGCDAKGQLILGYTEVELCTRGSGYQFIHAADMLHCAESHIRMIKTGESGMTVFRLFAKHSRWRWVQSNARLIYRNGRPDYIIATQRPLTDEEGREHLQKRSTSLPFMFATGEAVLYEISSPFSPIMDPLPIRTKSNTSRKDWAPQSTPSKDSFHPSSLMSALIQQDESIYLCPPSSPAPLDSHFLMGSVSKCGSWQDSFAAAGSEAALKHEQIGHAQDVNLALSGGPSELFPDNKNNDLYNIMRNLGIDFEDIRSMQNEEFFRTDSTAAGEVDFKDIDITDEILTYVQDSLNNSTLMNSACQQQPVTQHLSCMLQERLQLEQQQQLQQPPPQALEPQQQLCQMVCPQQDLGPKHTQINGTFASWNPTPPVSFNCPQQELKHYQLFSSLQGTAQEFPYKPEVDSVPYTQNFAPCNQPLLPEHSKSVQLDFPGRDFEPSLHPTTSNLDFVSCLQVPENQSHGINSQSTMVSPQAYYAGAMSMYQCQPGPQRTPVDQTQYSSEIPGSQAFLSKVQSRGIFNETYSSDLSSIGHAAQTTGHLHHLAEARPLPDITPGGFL

[3] = Upregulation of utrophin protein expression in human patient derived KM1328 cells assessed as fold increase at 3 uM measured after 72 hrs by […]; type: functional
[4] = Aqueous solubility of the compound in DMSO measured after 2 hrs by turbidity assay; type: physicochemical
[5] = biological target: T1, Aryl hydrocarbon receptor; assay: Induction of AhR nuclear translocation in mouse C2C12 cells at 800 nM measured after 2 hrs by Hoechst 33258 staining based fluorescence microscopy analysis; type: cell-based; details: c2c12, 2 h, 0.8 µM
Homo sapiens = species on record: Homo sapiens; assay: Binding affinity to recombinant AhR/ARNT (unknown origin) assessed as binding constant incubated for 30 mins by fluorescence quenching analysis; details: filed as antagonist
C2C12 [6] = assay: Cytotoxicity against mouse C2C12 cells assessed as reduction in cell viability at 0.78 to 100 uM measured after 24 hrs by MTT assay; type: toxicity, cell-based; details: c2c12, 24 h, dose 0.78-100 µM
[7] = Lipophilicity, logD of the compound in cyclohexane/PBS at pH 7.4 measured after 1 hr by LC-MS and HPLC analysis; type: physicochemical; details: pH 7.4, 1 h
[8] = Stability in human serum assessed as remaining compound at 50 uM measured after 2 hrs by LC-MS and HPLC analysis; type: ADME, cell-free; details: read-out: Stability
C2C12 [9] = assay: Upregulation of utrophin mRNA expression in mouse C2C12 level measured after 72 hrs by qRT-PCR analysis; type: functional, cell-based; details: dose 200-800 nM
[10] = Upregulation of utrophin mRNA expression in mouse C2C12 cells assessed as fold increase at 800 nM measured after 72 hrs by qRT-PCR analysis; type: functional
[11] = Upregulation of utrophin expression in mouse C2C12 cells assessed as fold increase at 800 nM measured after 72 hrs by In-cell ELISA method; type: functional
[12] = Stability in human plasma assessed as remaining compound at 50 uM measured after 2 hrs by LC-MS and HPLC analysis; type: ADME, cell-free; details: read-out: Stability
[13] = Upregulation of utrophin protein expression in mouse C2C12 cells assessed as fold increase at 800 nM measured after 72 hrs by Western blot analysis; type: functional
[14] = Upregulation of utrophin protein expression in human patient derived KM1328 cells assessed as fold increase at 800 nM measured after 72 hrs by Western blot analysis; type: functional
C2C12 [15] = assay: Upregulation of utrophin protein expression in mouse C2C12 level measured after 72 hrs by Westernblot analysis; type: functional, cell-based; details: dose 200-800 nM
C2C12 [16] = assay: Upregulation of utrophin mRNA expression in mouse C2C12 cells at 800 nM measured after 72 hrs by qRT-PCR analysis; type: functional, cell-based
[17] = Metabolic stability in rat liver microsomes assessed as intrinsic clearance at 5 uM preincubated for 5 mins followed by NADPH addition and measured upto 60 mins by LC-MS analysis; type: ADME, Microsome; details: time < 65 min, read-out: CLH
[18] = biological target: T1, Aryl hydrocarbon receptor; assay: Antagonist activity at AhR in mouse C2C12 cells assessed as reversal of TCDD inhibited myogenesis by measuring fold change at 800 nM measured after 7 days by Hoechst 33258 staining based fluorescence microscopy analysis; type: cell-based; details: c2c12, 168 h, 0.8 µM, time 7 day
[19] = Binding affinity to recombinant AhR/ARNT (unknown origin) assessed as dissociation constant incubated for 30 mins by fluorescence quenching analysis; set-up: species or system Homo sapiens
[20] = biological target: T1, Aryl hydrocarbon receptor; assay: Antagonist activity at AhR in mouse C2C12 cells assessed as reduction in ITE induced AhR nuclear translocation at 800 nM measured after 2 hrs by Hoechst 33258 staining based fluorescence microscopy analysis; type: cell-based; details: c2c12, 2 h, 0.8 µM
[21] = Lipophilicity, logD of the compound in octanol/PBS at pH 7.4 measured after 1 hr by LC-MS and HPLC analysis; type: physicochemical

O=C(/C=C/C=C/c1ccc2c(c1)OCO2)N1CCCCC1 [PIPERINE]
fold change (FC) [1]: 1.3
Activity [2]: Not Active
fold change (FC) [3]: 0.99

CS(=O)(=O)c1ccc2nc(NCc3ccc(F)cc3)ncc2c1
solubility kinetic at 2 h [4]: 30 µM (≈ 9.94 µg/mL)
Activity [5]: Not Active
Ka (Homo sapiens): 24 µM⁻¹
Activity (C2C12 [6]): Toxic
logD [7]: 0.2
remaining at 2 h, 50 µM [8]: 70%
Activity (C2C12 [9]): Dose-Dependent Effect
fold change (FC) [10]: 2.11
fold change (FC) [11]: 2.14
remaining at 2 h, 50 µM [12]: 69.2%
fold change (FC) [13]: 2.72
fold change (FC) [14]: 2.3
Activity (C2C12 [15]): Dose-Dependent Effect
Activity (C2C12 [16]): Active
microsomal CLint at 5 µM [17]: 6.66 µL/min/mg
fold change (FC) [18]: 2
Kd [19]: 41.7 nM
Activity [20]: Active
logD at 1 h [21]: 2.46
